In patent publication US9801960B2, “Probe for a biological specimen and labelling method and screening method using the probe” (CANON KABUSHIKI KAISHA, priority 2008, dated 2017):

How the values were obtained:
[1] = Excitation and fluorescence emission wavelength measurement; assay type: physicochemical; design: Stokes shift (λem − λex): unit not given here; conditions: aqueous solution: 10 mg/mL solution in DMSO diluted 500-fold with purified water
Experimental: It should be noted that the excitation wavelength and the fluorescence emission wavelength of the staining compound were determined by measuring an aqueous solution, which had been obtained by diluting 500-fold a 10 mg/mL solution of the staining compound in DMSO with purified water, with a fluorescence spectrophotometer FL 4500 manufactured by Hitachi High-Technologies Corporation.

[2] = Storage stability of staining compound solution in DMSO; assay type: physicochemical; conditions: 10 ng/mL in DMSO, closed glass container, normal temperature, 1 month; rate of change of absorbance and fluorescence intensity
Method in brief: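 Compounds held as 10 ng/mL DMSO solutions in closed glass containers at normal temperature for 1 month. Rates of change in absorbance and fluorescence intensity at a given wavelength versus start were scored: +++ <5%, ++ 5–15%, − >15%.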

[3] = test system: Zebrafish liver section; assay: Ex vivo labelling: tissue section of stained Zebrafish; design: key to Staining property: +++: stained; −: no stained; key to Fluorescence sensitivity: +++: strongly observed; ++: moderately observed; +: weakly observed; −: no stained; conditions: 50 μm, fish stained as in Example 5, PFA fixed
Experimental: Zebrafish which had been stained by the operation in Example 5 was taken out and fixed with a 4% solution of paraformaldehyde (PFA) in PBS. After that, a tissue section having a thickness of 50 μm was prepared with a linear slicer PRO7 (manufactured by Dosaka EM Co., Ltd.) (Table 3). The section was collected on an MAS-coated slide glass (manufactured by Matsunami Glass Ind., Ltd.), mounted with Fluoromount G (manufactured by Southern Biotechnology), and then covered with a cover glass.

[4] = test system: Zebrafish juveniles; assay: In vivo labelling of Zebrafish juveniles with probe for biological specimen; design: key to Staining property: +++: stained; −: no stained; key to Fluorescence sensitivity: +++: strongly observed; ++: moderately observed; +: weakly observed; −: no stained; conditions: 1 hour; for Fluorescence sensitivity / Staining property: 10 ng/mL; for Fluorescence sensitivity: fluorescence intensity visually evaluated; for Staining property: visually evaluated; for Site(s) to be labelled: 10 ng/mL in water, stereoscopic microscope
Method in brief: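 Five zebrafish juveniles were immersed in distilled water containing staining compound at 10 ng/mL (DMSO solution) for 1 hour. They were then washed three times with Egg Water, immobilised in 3% methylcellulose and imaged by stereomicroscope. Staining and fluorescence intensity were scored visually on a +++ to − scale.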

[5] = test system: human small intestine section; assay: In vitro labelling of human frozen tissue section slide; assay type: cell-based; design: key to Staining property: +++: stained; −: no stained; key to Fluorescence sensitivity: +++: strongly observed; ++: moderately observed; +: weakly observed; −: no stained; conditions: 10 ng/mL aqueous solution, 1 hour
Experimental: (§1) A human frozen tissue section slide (manufactured by BioChain Institute, Inc.) shown in Table 3 was immersed in a 10 ng/mL aqueous solution of each of the staining compounds shown in Table 3 for 1 hour. Next, the slide was washed three times with PBS for 10 minutes, mounted with Fluoromount G (manufactured by Southern Biotechnology), and then covered with a cover glass.

[6] = test system: human liver tumor section; assay: as above; assay type: cell-based; design: key to Staining property: +++: stained; −: no stained; key to Fluorescence sensitivity: +++: strongly observed; ++: moderately observed; +: weakly observed; −: no stained; conditions: 10 ng/mL aqueous solution, 1 hour
Experimental: as §1

Excitation wavelength λex [1] [nm]	Fluorescence emission wavelength λem [1] [nm]	Stokes shift (λem − λex) [1]	Structure (SMILES)	Storage stability [2]	Fluorescence sensitivity [3]	Staining property [3]	Fluorescence sensitivity [4]	Staining property [4]	Fluorescence sensitivity [5]	Staining property [5]	Site(s) to be labelled [4]	Fluorescence sensitivity [6]	Staining property [6]
474	610	136	COc1ccc2cc(N3c4ccc(/C=C(\C#N)C(=O)O)cc4C4CCCC43)ccc2c1 (stereo not drawn) [Dye 6]	+++ (rates of change of the absorbance and the fluorescence intensity are less than 5%, and thus, the storage stability is highly excellent)	+++	+++	+++	+++					
570	699	129	CCN1C(=O)/C(=c2\s/c(=C/c3ccc4c(c3)C3CCCC3N4c3ccc(SC)cc3)c(=O)n2CC(=O)O)SC1=S (stereo not drawn) [Dye 18]	+++ (rates of change of the absorbance and the fluorescence intensity are less than 5%, and thus, the storage stability is highly excellent)			+++	+++	+++	+++	blood vessel, gallbladder, and gastrointestinal		
545	636	91	O=C(O)C[n+]1c(/C=C/c2cc(Br)c3c(c2)C2CCCC2N3c2ccccc2)sc2ccccc21 (stereo not drawn) [Dye 23]	+++ (rates of change of the absorbance and the fluorescence intensity are less than 5%, and thus, the storage stability is highly excellent)			+++	+++			nose	+++	+++
784	811	27	CC1(C)C(/C=C/C=C/C=C/C=C2\N(CCCCS(=O)(=O)O)c3ccc4ccccc4c3C2(C)C)=[N+](CCCCS(=O)(=O)[O-])c2ccc3ccccc3c21 [ICG, indocyanine green, reference compound]	− (rates of change of the absorbance and fluorescence intensity are more than 15%, and thus, the storage stability is poor)			+	+++			liver		
